Experiments:
[1] = tested on: Human T-lymphocytic leukemia Jurkat cells (IL-2 secretion); experiment: IL-2 ELISA in PMA/ionomycin-activated Jurkat cells; assay type: cell-based; details: 10 μM SD1 pretreatment 3 hours; PMA 50 ng/ml and ionomycin for 24 hours; ELISA (FIG. 4A)
Method: Human T-lymphocytic leukemia Jurkat cells were cultured in RPMI1640 medium containing 10% FBS. The cells were pretreated with SD1 at a dose of 10 μM for 3 hours. For the control group cells (at a dose of 0), an equal volume of DMSO was added to the medium. Subsequently, the cells were continued to be stimulated with phorbol ester (PMA, 50 ng/ml) and ionomycin ([…]) for 24 hours. The cell culture supernatant was collected, and the level of IL-2 was detected using enzyme linked immunosorbent assay (ELISA) (FIG. 4A).

[2] = tested on: interferon-stimulated genes (ISGs) Ifit1 and Mx1; experiment: qPCR of interferon-stimulated gene mRNAs in mouse primary peritoneal macrophages after mIFN-β stimulation; assay type: cell-based; details: 10 μM SD1 pretreatment 3 hours, mIFN-β 500 μg/ml for 3 hours, qPCR (FIG. 1B)
Method: 2 ml of 3% mercaptoacetate (dissolved in double distilled water at a ratio in % by m/v, and then subjected to high-pressure sterilization treatment) was injected into C57BL/6 mice (6-8 weeks old, male) intraperitoneally. After 3 days, mouse primary peritoneal macrophages (PMs) were isolated from the C57BL/6 mice and cultured in endotoxin-free high-glucose DMEM medium containing 10% FBS.
The next day, the medium was replaced by fresh complete medium, and the cells were pretreated with 10 μM SD1 for 3 hours. For the control group cells (at a dose of 0), an equal volume of DMSO was added to the medium. Afterwards, the cells were stimulated with mIFN-β (at a dose of 500 μg/ml) for 3 hours, and RNAs were subsequently extracted for reverse transcription. The contents of mRNAs (including Ifit1 and Mx1) of interferon-stimulated genes (ISGs) were detected and analyzed by fluorescence quantitative PCR (qPCR) method using commercial primers and conditions recommended by manufacturers (FIG. 1B).

NFAT = experiment: Jurkat-Lucia NFAT reporter gene assay; assay type: cell-based, human; details: Jurkat-Lucia NFAT cells; 10 μM SD1 pretreatment 3 hours; PMA 50 ng/ml and ionomycin 300 ng/ml for 24 hours (FIG. 4B)
Method: Jurkat-Lucia NFAT reporter cell line was purchased from invivogen and cultured in RPMI1640 medium containing 10% FBS. The cells were pretreated with 10 μM SD1 for 3 hours. For the control group cells (at a dose of 0), an equal volume of DMSO was added to the medium. Subsequently, PMA (50 ng/ml) and ionomycin (300 ng/ml) were used to stimulate for 24 hours. The cell culture supernatant was obtained. Meanwhile, the luciferase substrate powder was dissolved in 25 ml of deionized water under dark conditions, aliquoted and stored at −80° C. for the preparation of the luciferase substrate. 20 μl of the culture supernatant was transferred to a Luciferase specific 96-well ELISA plate, and detected using Thermo VARIOSKAN FLASH microplate-reader (FIG. 4B).

[3] = tested on: JAK-STAT signaling pathway (IFN-β mediated); experiment: Western blot of type I interferon signaling pathway activation in mouse primary peritoneal macrophages stimulated with mIFN-β; assay type: cell-based; details: 10 μM SD1 pretreatment 3 hours, mIFN-β 500 μg/ml for different time periods, Western blot (FIG. 2A)
Method: PMs were obtained using the method as described in Example 2 and cultured in endotoxin-free high-glucose DMEM medium containing 10% FBS. The cells were pretreated with 10 μM SD1 for 3 hours. For the control group cells (at a dose of 0), an equal volume of DMSO was added to the medium. Afterwards, the cells were stimulated with mIFN-β (at a dose of 500 μg/ml) for different time periods. Subsequently, total cellular proteins were extracted, and the activation of the type I interferon signaling pathway was detected using Western blot (FIG. 2A).

[4] = tested on: ISG genes in peripheral blood cells of SLE model mice; experiment: ISG expression in peripheral blood cells of pristane-induced SLE model mice; assay type: in vivo, mouse; details: C57 female mice; SD1 10 mg/kg intraperitoneal once a day for 5 days before pristane; blood on days 4 and 6 (FIG. 3A to 3C)
Description: Lupus-like symptoms similar to those in human patients were induced in mice by the hydrocarbon compound pristane (also referred as norphytane, 2,6,10,14-tetramethylpentadecane) (Zhuang et al., Animal Models of Interferon Signature Positive Lupus. Front Immunol. 2015. 6: p. 291; Nacionales, D. C et al. (2006). Type I interferon production by tertiary lymphoid tissue developing in response to 2,6,10,14-tetramethyl-pentadecane (pristane). The American journal of pathology 168, 1227-1240; Reeves, W. H et al. (2009). Induction of autoimmunity by pristane and other naturally occurring hydrocarbons. Trends Immunol. 30, 455-464). […] It is a recognized model that is able to simulate the overexpression of type I interferon in SLE patients, which can aid in elucidating the pathogenesis of SLE and finding therapeutic targets.
Firstly, C57 female mice were pretreated by intraperitoneal injection of PBS and SD1 (10 mg/kg, once a day, for 5 consecutive days). Subsequently, SLE mice were induced by intraperitoneal injection of pristane (500 μl/mouse). On days 4 and 6 after the injection of pristane, blood was collected from the eye-fundus vascular plexus, and total RNA was obtained from the peripheral blood by using Trizol to detect the effect of spermine on the early type I interferon effect of pristane-induced mice.

[5] = tested on: JAK-STAT signaling pathway (IL-2 mediated); experiment: Western blot of signaling pathway activation in mouse spleen cells stimulated with IL-2; assay type: cell-based; details: 10 μM SD1 pretreatment 3 hours, IL-2 10 ng/ml for different time periods, Western blot (FIG. 2B)
Method: Mouse spleen single cells were isolated from spleens of the male mice 6-8 weeks old, and the cells freshly obtained were cultured in RPMI1640 medium containing 10% FBS, non-essential amino acids, and β-mercaptoethanol. The cells were pretreated with 10 μM SD1 for 3 hours. For the control group cells (at a dose of 0), an equal volume of DMSO was added to the medium. Subsequently, the cells were stimulated with 10 ng/ml recombinant mouse interleukin-2 (IL-2) for different time periods. The cells were collected, total cellular proteins were extracted, and the activation of the type I interferon signaling pathway was detected using Western blot (FIG. 2B).

[6] = tested on: ISG promoter in RAW264.7 cells; experiment: ISG promoter-reporter (luciferase) assay in RAW264.7 cells under mIFN-β stimulation; assay type: cell-based, mouse; details: 10 μM SD1 pretreatment 3 hours; mIFN-β 1 ng/ml for 7 hours; luciferase in supernatant (FIG. 1A)
Method: The RAW264.7 cell line with ISG promoter-reporter gene was purchased from Invivogen and cultured in DMEM containing 10% fetal bovine serum (FBS). The cells were pretreated with 10 μM SD1 for 3 hours. A concentrated solution of the above-mentioned SD1 was freshly formulated in DMSO at a concentration of 20 mM before each use, and subsequently diluted as needed. Afterwards, the cells were stimulated with recombinant mouse interferon-beta (mIFN-β) at a dose of 1 ng/ml for 7 hours, and the cell culture supernatant was obtained. Meanwhile, the luciferase substrate powder was dissolved in 25 ml of deionized water under dark conditions, aliquoted, and stored at −80° C. for preparation of the luciferase substrate. 20 μl of the culture supernatant was transferred to a Luciferase specific 96-well ELISA plate, and detected using Thermo VARIOSKAN FLASH microplate-reader (FIG. 1A).

CC(C(=O)NCCCNCCCCNCCCNC(=O)C(C)(c1ccccc1)c1ccccc1)(c1ccccc1)c1ccccc1 [SD1]
IL-2 secretion level of activated Jurkat cells [1]: effectively inhibit
expression of Ifit1 mRNA downstream of type I interferon [2]: reduce
expression of Mx1 mRNA downstream of type I interferon [2]: reduce
transcriptional activity of NFAT (reporter gene activity) (NFAT): effectively inhibits
activation of the JAK-STAT signaling pathway mediated by IFN-β (levels of p-JAK1, p-TYK2, p-STAT1/2) [3]: effectively inhibit
ISG expression (Ifit1, Isg15, Rsad2) in peripheral blood cells of SLE model mice [4]: inhibit
activation of the JAK-STAT signaling pathway mediated by IL-2 (levels of p-JAK1, p-TYK2, p-STAT1/2) [5]: effectively inhibit
activity of ISG promoter in RAW264.7 cells [6]: effectively inhibit

— patent US20260217646A1, “SPERMINE DERIVATIVE AND THERAPEUTIC USE THEREOF FOR DISEASES” (Institute of Basic Medical Sciences, Chinese Academy of …, priority 2022, published 2026)
